Data from patent US12055553B2, “Method for diagnosing risk for inflammatory disease through glycan profiling” (The Regents of the University of California, priority 2017, dated 2024).

Key:
[1] = cited from earlier work
[2] = system: methicillin-resistant Staphylococcus aureus (MRSA); assay: Bacterial association assay on Caco-2 host cells, MRSA; type: cell-based
Description: (§1) Enterohaemorrhagic Escherichia coli O157H;7 (EHEC) and methicillin-resistant Staphyloccuus aureus (MRSA) were grown at 37° C. with continuous shaking for 14-16 h.
(§2) Caco-2 cells were seeded into 24-well plates at 5×10^5 cells per well. Wells were designated as control (Row 1) or treated with kifunensine (Row 2). For adhesion, the left half of the plate was infected with logarithmically growing enterohaemorrhagic Escherichia coli O157:H7 (EHEC), and the right half of the plate was infected with methicillin-resistant Staphylocaccus aureus (MRSA). Triplicate setups were prepared for each condition. After 2 h, the wells were washed 3× with PBS and the adherent cell counts were determined by serial dilutions and spotting of the lysate generated upon treatment of the wells with, PBS/0.5% Triton for 5 min. CFU are expressed per mL as a comparison between the different treatments. For measuring uptake, the duplicate plate was similarly infected with EHEC and MRSA. Two hours post-infection, the unbound bacteria were washed with PBS (3×) and the Caco-2-cells were treated with media containing 100 μg/mL gentamicin to lyse cell surface associated bacteria. Following a 2 h-treatment, the internalized bacterial cell counts were derived upon lysing the Caco-2 cells with PBS/0.5% Triton followed by serial dilution and CFU counts.

[3] = system: enterohaemorrhagic Escherichia coli (EHEC); assay: Bacterial association assay on Caco-2 host cells, EHEC; type: cell-based, Escherichia coli O157:H7
Description: as §1, §2

[4] = system: dipeptidyl peptidase IV (DPP IV); assay: Dipeptidyl peptidase IV activity in membrane fractions of treated Caco-2 cells; type: cell-based, Human; conditions: membrane fractions of kifunensine-treated cells
Description: Dipeptidyl peptidase IV (DPP IV) activity was measured in membrane-enriched fractions using a colorimetric assay per manufacturer's instructions (Enzo Life sciences, NY). Membrane extracts from control and kifunensine-treated cells were incubated with a chromogenic substrate (H-Gly-Pro-pNa) at 25° C. for 30 min. Cleavage of p-nitroaniline (pNA) was monitored by absorbance measurements at […] with a microplate photometer. Enzyme activities were compared to a standard curve generated using a pNA standard. A reaction containing a DPP IV inhibitor (P32/98) was included as a control for enzymatic specificity.

[5] = system: alkaline phosphatase (IAP); assay: Intestinal alkaline phosphatase activity in membrane fractions of treated Caco-2 cells; type: cell-based, Human; conditions: enriched membrane fractions of kifunensine-treated (high mannose rich) cells
Description: Intestinal alkaline phosphatase (IAP) activity was measured in membrane-enriched factions using a colorimetric assay per manufacturer's instructions (Abcam, MA). Cells were incubated with 50 μM p-nitrophenyl phosphate (p-NPP) for 60 min. Dephosphorylated was monitored by the production of p-nitrophenyl, which turns the solution to a visible yellow color. Absorbance readings were taken at 405 nm with a microplate photometer. Enzyme activities were determined with a standard curve generated using IAP enzyme. Activity was measured in U/mL, where a Unit is defined as the amount of enzyme to hydrolyze 1 μmol of p-NPP per minute at 37° C.

[6] = system: Caco-2 cells; assay: Permeability assay, FITC-dextran passage through Caco-2 monolayer; type: cell-based, Human; conditions: 100 μg/mL treatment, after 2 h, untreated to treated, n=4
Description: Caco-2 cells were seeded on porous polycarbonate filter membranes (3401; Corning, NY) until cells formed a single monolayer and were fully differentiated. Kifunensine (Carbosynth, CA) was added post-differeniation for 72 h. Four replicates were prepared for both control and kifunensine-treated cases. Permeability experiments were performed in Hank's Balanced Salt Solution, prepared with 25 mM HEPES, 0.35 g/L sodium bicarbonate, and adjusted to pH 7.4 with sodium hydroxide. The prepared membranes were washed and inserted into a new micro-well plate. FITC-dextran (4 kDa) (Sigma-Aldrich, MO) was introduced to the upper (apical) chamber at 10 mg/mL. The plate was placed in a 37° C. incubator devoid of CO2 for 2 h on an orbital shaker at 100 rpm. The amount of FITC-dextran that transferred through the cells was measured in the lower (basolateral) chamber by fluorescence at 492/520 nm (excitation/emission) using a Perkin Elmer Victor3 Multilabel Plate Reader (Parkin Elmer, MA). The apparent permeability coefficient was determined according to the following equation: [formula] where dQ/dt is the rate of permeation across cells, A is the surface area of the membrane, and C0 is the initial donor concentration. Transepithelial electrical resistance (TEER) values were measured using a Millicell ERS Voltohmmeter (EMD Millipore, MA) at room temperature. Enzyme Activity Assay

[7] = system: Caco-2 cells; type: cell-based
Description: (§3) We examined whether supplementation of free monosacchaides derived from diet changes N-glycosylation outcomes on the intestinal cell-surface at concentrations relevant to physiological conditions. Changes in glycosylation were assessed by globally releasing glycans from membrane proteins extracted from fully differentiated (Caco-2) and partially differentiated (HT-29) intestinal epithelial cells and analyzing the mixture by porous graphitized carbon (PGC)-LC-MS. […] The glycan profile under normal growth conditions was used as a frame of reference with which to compare the glycome at varied environments.
(§4) Human colorectal adenocarcinoma Caco-2 cells derived from a person, were obtained from American Type Culture Collection (ATCC, VA) and grown in Eagle's Minimum Essential Medium (EMEM) supplemented with non-essential amino acids, 2 mM L-glutamine, 10% (v/v) fetal bovine serum (Life Technologies, NY), 1 mM sodium pyruvate, 1.5 g/L sodium bicarbonate, 100 U/mL penicillin, and 100 μg/mL streptomycin. Alternatively, Caco-2 cells were grown in Dulbecco's Modified Eagle's Medium (DMEM) supplemented with 10% (v/v) fetal bovine serum, 100 U/mL penicillin, and 100 μg/mL streptomycin. Human colorectal adenocarcinoma HT-29 cells, derived from a person, were obtained from ATCC and grown in McCoy's 5A medium supplemented with 10% (v/v) fetal bovine serum, 100 U/mL penicillin, and 100 μg/mL streptomycin. Cells were subcultured at 80% confluency and maintained at 37° C. in a humidified incubator with 5% CO=2. All treatments were added to the media after cell differentiation. Caco-2 cells were fully differentiated 14-days post-confluency. HT-29 cells were partially differentiated 4-days post-confluency. After 72 h, cells were collected in biological triplicates by scraping A fixed count of 2×10^6 viable cells was used for each experiment Passage number between experiments was controlled to no higher than P40 and a delta P of no more than 20. High passage cells were scraped after P80. Media was renewed three times a week unless specified. Monolayer integrity and quality of cell borders were evaluated under the microscope routinely during growth and before harvest.
(§5) In brief harvested cells were resuspended in homogenization buffer containing 0.25 M sucrose, 20 mM HEPES-KOH (pH 7.4), and 1:100 protease inhibitor (EMD Millipore, CA). Cell lysis was performed on ice using a probe sonicator (Qsonica, CT) with five alternating and on and off pulses in 5 and 10 s intervals, respectively. Lysates were […] at 2,000×g for 10 min to remove the nuclear fraction and cellular debris. The supernatant was collected and brought to 1 mL with homogenization buffer for ultracentrifugation at 200,000×g for 45 min at 4° C. The pallet was resuspended and repelleted by ultracentrifugation in 0.2 M Na2CO3 (pH 11) followed by water to fragment the endoplasmic reticulum and remove the cytoplasmic fraction, respectively. The resulting membrane faction was isolated and stored at −20° C. until further processing.
(§6) Membrane pellets were resuspended with 100 μL of 100 mM ammonium bicarbonate in 5 mM dithiothreitol and heated for 10 s at 100° C. to thermally denature the proteins. […] After addition of 400 μL of chilled ethanol, samples were placed in −80° C. for 1.5 h and centrifuged for 20 min at 21,130×g to precipitate residual deglycosylated proteins. The supernatant containing the released N-glycans was collected and dried. N-Glycans were purified by solid phase extraction containing a porous graphitized carbon (PGC) matrix. Eluted fractions were dried in vacuo.

[8] = system: HT-29 cells; assay: Cell surface N-glycan profiling (PGC-LC-MS) of HT-29 after supplementation; type: cell-based, Human; conditions: HT-29, 72 h
Description: as §3, §4, §5, §6

[9] = system: THP-1 cells; assay: Lectin array of THP-1 monocyte cell surface glycan composition after monosaccharide supplementation; type: cell-based; conditions: 3 days
Description: THP-1 cells (monocyte cell line) were incubated with different sugars (i.e. monosaccharides) for 3 days. Lectin arrays were used to detect changes in the cell surface glycan composition. Secreted HDL from the cell supernatant (monocytes secrete their own HDL) was isolated and then analyzed to determine the glycan composition.
• ConA (Concanavalin A): binds internal and nonreducing terminal α-D-mannosyl (αMan) and α-D-glucosyl groups (αGIc) • JAC (Jacalin): binds galactose-containing O-glycoproteins (Galβ3GalNac) • SNA (Sambucus nigra): binds sialic acid attached to terminal galactose in α-2,6 and to a lesser degree, α-2,3 linkage (Neu5Acα6Gal/GalNac) • AAL (Aleuria auanda lectin): binds fucose linked (α-1,6) to N-acetylglucosamine or to fucose linked (α-1,3) to N-acetyllactosamine related structures, exposed core (α-1, 6) and outer arm (α-1, 2 or α-1, 3) linked fucose moieties. Sugar Treatments: • L-fucose: Tested 2 doses: 300 umol/L (physiologic) and 100 mmol/L. (Marquardt T, Blood, December 15; 94(12):3976-85, 1999): Named L-Fuc Low and L-Fuc High • Fructose: Tested 2 doses: 27 mmol/L (physiologic) and 100 mmol/L. (Hui H, Pancreas, August 38(6): 706-12, 2009); Named Fruc Low and Fruc High • N-acetylglucosamine (GlcNAc): Tested 1 dose: 100 mmol/L. (Villiger TK, Controlling the time evolution of mAb N-finked glycosylation, Part I: Microbioreactor experiments, Biotechnol Prog, September; 32(5):1123-1134, 2016) • Galactose: The two doses for the galactose treatment in the glycan array experiments were: 150 mmol/L and 75 mmol/L. (Villiger TK, Controlling the time evolution of mAb N-linked glycosylation, Part II: Model-based predictions, Biotechnol Prog, September; 32(5):135-1148, 2016)

[10] = hyper-mannosylated (kifunensine-treated) Caco-2, within 2 h
[11] = high dose (galactose 150 mmol/L, fructose 100 mmol/L, L-fucose 100 mmol/L)
[12] = low dose (galactose 75 mmol/L, fructose 27 mmol/L, L-fucose 300 umol/L)

## CC(=O)N[C@H]1[C@H]([C@H](O)[C@H](O)CO)OC(O)(C(=O)O)C[C@@H]1O (some centres unmarked) [sialic acid]
[1]
  pKa: 2.6

## O=C1N[C@@H]2[C@@H](O)[C@@H](O)[C@H](O)[C@@H](CO)N2C1=O [kifunensine]
[2]; [10]
  increase in ability of MRSA to adhere to the monolayer: > 5000%
[2]; kifunensine-transformed Caco-2
  more MRSA bacteria able to invade transformed host cells than untreated cells: approximately 30%
[3]; Caco-2 rich in high mannose glycans (kifunensine-treated), p=0.0005
  EHEC uptake in comparison to control cells: significantly reduced
[3]; [10]
  EHEC binding to the monolayer: did not significantly affect
[4]
  DPP IV activity change: nearly unaffected
[5]
  decrease in IAP activity vs unaltered Caco-2 cells: ~32%
[6]
  maximum increase in passage of FITC-D4 from upper to lower chamber: 64%
[7]; Caco-2, kifunensine-treated
  cell viability: without affecting viability
  conversion of surface glycans into high mannose glycans: nearly complete conversion

## O=C(CO)[C@@H](O)[C@H](O)[C@H](O)CO [fructose]
[8]; fructose 50 mM, glutamine 10 mM
  change in fucosylated glycans: remained unaltered
[8]; mannose, fructose 50 mM, glutamine 10 mM, glutamate 2 mM
  change in high mannose type glycans: remained unaltered
[7]; Caco-2, 72 h, fructose 50 mM, glutamine 10 mM
  increase in abundance of high mannose type N-glycans: 511%
[7]; Caco-2, 72 h, fructose 50 mM, GalNAc
  increase in abundance of non-decorated complex/hybrid type N-glycans: 672%
[7]; Caco-2, fructose 50 mM, 72 h
  fold increase of each of Hex3HexNAc4Fuc1, Hex4HexNAc5Fuc1, Hex6HexNAc4Fuc1, Hex5HexNAc5Fuc1: more than 4 fold
[9]; [11]
  AAL binding (fucosylated glycans): decreased
  JAC binding (terminal galactose containing glycans): decreased
  SNA binding (terminal sialic acid): no effect
[9]; [12]
  AAL binding (fucosylated glycans): decreased
  SNA binding (terminal sialic acid): decreased
[9]; single dose (GlcNAc 100 mmol/L) or dose not distinguished
  ConA binding (glucose or mannose-terminated glycans): decreased

## CC(O)C(=O)O (centres unmarked) [lactate]
[8]; acetate, lactate 10 mM, glutathione 2 mM
  change in the HT-29 glycome / major groups of glycans: minimal effects
[7]; Caco-2, 72 h, fucose 25 mM, acetate, lactate, butyrate 10 mM, glutamine 10 mM
  change in fucosylated glycans / fucosylation: significant increase
[7]; Caco-2, SCFA 10 mM, 72 h
  fold decrease of Hex6HexNAc6Fuc1NeuAc3: 3.7 fold
  fold decrease of Hex7HexNAc7Fuc1NeuAc1: 3.4 fold
  fold increase of Hex6HexNAc6NeuAc1: 10 fold
